The values below come from patent US6642273B2, “Unsaturated derivatives at the 4-position of 6-tert-butyl-1,1-dimethylindane and their use in human and veterinary medicine and in cosmetics” (Galderma Research & Development, priority 1997, dated 2003).

Each structure is given as a SMILES string.

What is called melting point is the temperature of the solid-liquid transition. In the case of `C=C(c1ccsc1C(=O)O)c1cc(C(C)(C)C)cc2c1CCC2(C)C` [Example 10, 3-[1-(6-tert-Butyl-1,1-dimethylindan-4-yl)ethen-1-yl]-thiophene-2-carboxylic Acid], the melting point is 146 to 148 °C.

On to `C=C(c1cc(C(C)(C)C)cc2c1CCC2(C)C)c1sccc1C(=O)O` [Example 12, 2-[1-(6-tert-Butyl-1,1-dimethylindan-4-yl)ethen-1-yl]-thiophene-3-carboxylic Acid], for which the melting point was 148 to 150 °C.

`C=C(c1cc(C(C)(C)C)cc2c1CCC2(C)C)c1sccc1C=O` [Example 11, 2-[1-(6-tert-Butyl-1,1-dimethylindan-4-yl)ethen-1-yl]-thiophene-3-carboxaldehyde]: the melting point is 148 to 150 °C.

As for `C=C(c1ccsc1C=O)c1cc(C(C)(C)C)cc2c1CCC2(C)C` [Example 9, 3-[1-(6-tert-Butyl-1,1-dimethylindan-4-yl)ethen-1-yl]-thiophene-2-carboxaldehyde], the melting point was in the range of 99 to 100 °C.
